Assay results: US6686336B2, “N-terminal D(-)-penicillamine peptides as aldehyde sequestration agents” (Federal Government as represented by the Department of …, priority 2000, dated 2004)

Legend:
[1] = cited from earlier work; for AcH sequestration (trapping) in vivo: earlier studies (Nagasawa et al., J. Med. Chem, 1987)
rat hepatocytes = experiment: Test B: Sequestration of AcH in a hepatocyte system; format: cell-based; details: ethanol 20 mM; for lowering of the concentration of ethanol-derived AcH: compound 1.0 mM (1/20 molar concentration of ethanol), at two hrs, vs ethanol control without dipeptide, FIG. 4
Protocol: Test B: Sequestration of AcH in a hepatocyte system.
Hepatocytes from male Wistar rats were isolated and cultured under conditions previously described. On culture day two, ethanol and representative compounds of the invention were added to the culture medium to final concentrations of 20 mM and 1.0 mM, respectively. After 2 hours, 1.0 ml of medium was removed and added to a semicarbazide/sodium azide mixture and frozen until assayed for AcH by gas chromatography. AcH was measured before the addition of ethanol and representative compounds of the invention and 2 hours after incubation, and the values compared against ethanol control without dipeptides. In experiments with cyanamide (to inhibit AlDH), the cyanamide was added with the ethanol to give a final concentration in the culture medium of 50 mM. Results are depicted in FIGS. 4 and 5.

[2] = Test A: Sequestration of AcH in a cell-free system; format: biochemical; details: AcH 40 nmol, compound 400 nmol, 4.0 mM DTT, pH 7.4, 30 minute incubation at 37° C.; compared with 1 (positive control); FIG. 3
Protocol: Test A: Sequestration of AcH in a cell-free system. AcH (40 nmol) was incubated without (control) and with representative compounds of the invention (400 nmol) in a reaction mixture containing 4.0 mM dithiothreitol (DTT) and 40 mM potassium phosphate buffer (pH 7.4) in a total volume of 1.2 ml. The AcH remaining after a 30 minute incubation period at 37° C. was quantified by headspace GC analysis. DTT was included in the reaction mixture to maintain the thiols in their reduced state.

melting point | Structure (SMILES) | AcH sequestering activity (AcH remaining by headspace GC) [2] | other results
145 to 148 °C | CC(N)(CC(=O)[C@H](N)C(C)(C)S)C(=O)O.Cl (stereo partly drawn) [Compound 6c, D-Penicillamyl-α-aminoisobutyric acid hydrochloride] | – | –
– | NC(C(=O)O)C1(S)CCCC1 (racemic) [Compound 2, β,β-tetramethylene-DL-cysteine] | – | AcH sequestration (trapping) in vivo [1]: best β-mercapto-α-amino acid sequestration agents for AcH in vivo
– | N#CN [cyanamide] | – | increase in ethanol-derived AcH (rat hepatocytes; cyanamide in incubation medium (50 mM), control without dipeptide, FIG. 5): 45 fold
– | C[C@@H](O)[C@H](N)C(=O)O [threonine] | totally without AcH sequestering activity | –
– | CC(C)(S)[C@@H](N)C(=O)O [Compound 1, D(−)-penicillamine] | – | AcH sequestration (trapping) in vivo [1]: best β-mercapto-α-amino acid sequestration agents for AcH in vivo
– | N[C@@H](CO)C(=O)O [serine] | totally without AcH sequestering activity | –
71 to 75 °C | CC(C)(S)[C@@H](N)C(=O)NCCC(=O)O.Cl [Compound 6d, D-Penicillamyl-β-alanine Hydrochloride] | – | lowering of the concentration of ethanol-derived AcH (rat hepatocytes): 84%
67 to 71 °C | CC(C)(S)[C@@H](N)C(=O)NCC(=O)O.Cl [Compound 6a, D-Penicillamylglycine Hydrochloride] | – | lowering of the concentration of ethanol-derived AcH (rat hepatocytes): 79%; reduction of ethanol-derived AcH concentration in presence of cyanamide (rat hepatocytes; compound 1.0 mM, cyanamide (AlDH inhibitor) 50 mM, 2 hours, vs control without dipeptide, FIG. 5): 33%
– | N[C@@H](CCS)C(=O)O [L-Homocysteine] | comparable to 1 | AcH sequestration (trapping) in vivo [1]: not to be an effective AcH-trapping agent in vivo; metabolism in vivo ([1]; given as reason for lack of AcH trapping): metabolized too rapidly in vivo
263 to 265.5 °C (dec.) | CC(C)[C@H](NC(=O)[C@H](N)C(C)(C)S)C(=O)O.Cl | – | –
– | CSCC[C@H](N)C(=O)O [Methionine] | totally without AcH sequestering activity | –
